Test results reported in patent US20220168310A1, “INHIBITION OF ADENOVIRUS WITH FILOCICLOVIR” (Microbiotix, Inc., priority 2019, published 2022).
Entries after “also recorded” stand apart in the source; their conditions may differ.

Columns and labels:
[1] = Cytotoxicity, CellTiter-Glo cell viability assay in HFF cells; settings: human, human foreskin fibroblast (HFF) cell monolayers
Procedure: Human foreskin tissue was obtained from the University of Alabama at Birmingham tissue procurement facility with approval from the Institutional Review Board. The tissue was stored at 4° C. in cell culture medium consisting of minimum essential media (MEM) with Earle's salts supplemented with 10% fetal bovine serum (FBS; HyClone, Inc., Logan, Utah) and standard concentration of L-glutamine, amphotericin B (Fungizone), and vancomycin. The tissue was then placed in a phosphate-buffered saline solution, minced, and rinsed to remove the red blood cells. Tissue fragments were then resuspended in a trypsin-EDTA solution and incubated at 37° C. to disperse the cells, which were then collected by centrifugation. Cell pellets were then resuspended in 4 ml culture medium, placed in a 25-cm^2 tissue culture flask, and incubated at 37° C. for 24 h. The culture medium was then replaced with fresh medium and condition of the cells was monitored daily until a confluent cell monolayer was formed. The HFF cells were then expanded through serial passages in standard growth medium of MEM with Earle's salts supplemented with 10% FBS, L-glutamine, penicillin, and gentamicin. Each lot of cells was confirmed to be free of mycoplasma infection and routinely passaged or used for assays at or before passage 10.
Antiviral and cytotoxicity data were obtained in a series of three to five separate experiments for each virus to provide an accurate estimate of antiviral activity and statistical data. Each assay included positive and negative control compounds as well as infected and uninfected controls to ensure the integrity of the experiment.
The CPE reduction assays were performed in monolayers of human foreskin fibroblast (HFF) cells (5000/well) in 384-well plates in assay media consisting of MEM with Earle's salts, 2% FBS and standard concentrations of L-glutamine, penicillin and gentamycin. 5000 cells were seeded in 384-well microtiter plates and incubated at 37° C. in a humidified 5% CO2 incubator for 24 hours to allow for formation of confluent monolayers.
Cell monolayers were infected at a multiplicity of infection (MOI) of approximately 0.005 PFU/cell with virus strains including AdV5. […] Cytopathology was determined by the addition of CellTiter-Glo® reagent (Promega, Madison, Wis.). Concentrations of antiviral test compounds sufficient to reduce CPE by 50% (EC50) were interpolated from the experimental data using standard methods in Microsoft® Excel.

adenovirus 19 (AdV19) = experiment: Efficacy against adenovirus 19 (data not shown)
adenovirus 37 (AdV37) = experiment: Efficacy against adenovirus 37 (data not shown)
Human AdV6 = experiment: Low dose filociclovir against intravenously administered AdV6 in immunosuppressed hamsters (Example 6); settings: for AdV6-induced liver damage, serum transaminase (ALT) / AdV6 replication in the liver: 5 days post challenge; for AdV6 replication in the liver: TCID50
Procedure: Three dose levels were tested: 1, 3, and 10 mg/kg p.o. q.d.
All hamsters were immunosuppressed using cyclophosphamide (CP) administered intraperitoneally at a dose of 140 mg/kg, and then twice weekly at a dose of 100 mg/kg. Filociclovir in powdered form was suspended in 0.4% carboxymethyl cellulose (Sigma C5678) at 0.1, 0.3, and 1.0 mg/ml and sonicated to visual homogeneity. Filociclovir was made up once weekly, aliquoted into daily portions, and stored at 4° C. Aliquots were allowed to equilibrate to room temperature before dosing.
Hamsters were distributed into 7 groups, 15 hamsters/group (see Table 4), immunosuppressed as described above, and injected i.v. with vehicle (Groups 1-2) or 4×10^10 PFU/kg of AdV6 (Groups 3-7). Groups 1 and 3 received drug vehicle (p.o. q.d.), Groups 2 and 6 received 10 mg/kg filociclovir (p.o. q.d.), Group 4 received 3 mg/kg filociclovir (p.o. q.d.), Group 5 received 1 mg/kg filociclovir (p.o. q.d.), and Group 7 received cidofovir (one dose of 37 mg/kg, followed by 20 mg/kg doses 3 times weekly). For all groups, drug administration started 1 day before challenge, and continued according to the schedule above for the duration of the study.
The body weights and any signs of morbidity of the animals were monitored and recorded daily. At 5 days post challenge, 5 hamsters (designated at the start of the experiment) from each group were sacrificed, and gross pathological observation was performed. Serum and liver were collected and virus burden in liver was determined by TCID50 assay and the serum was analyzed for transaminase levels. The remaining 10 hamsters were sacrificed at 14 days post challenge. Hamsters that became moribund before Day 14 were sacrificed as needed. In addition to the animals judged moribund by observation, we sacrificed all hamsters that lost more than 20% of their original body weight. For all animals, liver tissue was preserved in formalin for histopathological examination.

[2] = 10 mg/kg q.d., listed as filociclovir

Question: For `Nc1nc2c(ncn2/C=C2/CC2(CO)CO)c(=O)[nH]1` [FCV, 2-amino-9-{(Z)-[2,2-bis(hydroxymethyl)cyclopropylidene]methyl}-3,9-dihydro-6H-purin-6-one], which CC50 ([1]; CC50, AdV6 line of Table 2, unit inferred) is on record?
Answer: The CC50 was > 100 µM.

Question: What about the CC50 ([1]; CC50, AdV7 line of Table 2, unit inferred) of the same compound?
Answer: The CC50 was > 150 µM.

Question: What about the CC50 ([1]; CC50, AdV8 line of Table 2, unit inferred) of the same compound?
Answer: Its CC50 is > 150 µM.

Question: And the CC50 ([1]; CC50, HFF cells, run with AdV5 assay, average and SD from five independent experiments)?
Answer: The CC50 was 95 ± 10.6 µM.

Question: And the CC50 ([1]; mammalian cytotoxicity (CC50), summary statement, 'preferably')?
Answer: Its CC50 is 100 to 150 µM.

Question: And the “treat or prevent infection” value (adenovirus 19 (AdV19))?
Answer: Its value is “effective”.

Question: What about the “treat or prevent infection” value (adenovirus 37 (AdV37)) of the same compound?
Answer: Its value is “effective”.

Question: And the mortality (Human AdV6; 1 mg/kg p.o. q.d., p=0.0449)?
Answer: Its mortality is “moderate yet significant”.

Question: And the “AdV6-induced liver damage, serum transaminase (ALT)” value (“AdV6-induced liver damage” for short) (Human AdV6; 1 mg/kg q.d., listed as Filociclovir)?
Answer: Its value is “ineffective”.

Question: And the “AdV6-induced liver damage” value (Human AdV6; 1 mg/kg q.d., listed as filociclovir)?
Answer: Its value is “largely ineffective”.

Question: And the body weight loss (Human AdV6; 1 mg/kg, listed as Filociclovir)?
Answer: The body weight loss was “not efficacious”.

Question: What about the body weight loss (Human AdV6; 1 mg/kg, listed as filociclovir) of the same compound?
Answer: The body weight loss was “unable to mitigate weight loss”.

Question: And the mortality (Human AdV6; 3 mg/kg q.d. p.o.)?
Answer: The mortality was “completely prevented mortality”.

Question: And the “AdV6 replication in the liver” value (Human AdV6; 3 mg/kg q.d. p.o., listed as filociclovir)?
Answer: The value was “suppressed virus replication to an intermediate level; also recorded: inhibits AdV6 replication in the liver”.

Question: What about the “AdV6-induced liver damage” value (Human AdV6; 3 mg/kg, p=0.0419, listed as Filociclovir) of the same compound?
Answer: Its value is “mitigated the pathology”.

Question: And the “AdV6-induced liver damage” value (Human AdV6; 3 mg/kg, p=0.0419, listed as filociclovir)?
Answer: The value was “moderate yet significant effect”.

Question: What about the body weight loss (Human AdV6; 3 mg/kg, listed as Filociclovir) of the same compound?
Answer: The body weight loss was “moderately efficacious”.

Question: And the body weight loss (Human AdV6; 3 mg/kg, listed as filociclovir)?
Answer: Its body weight loss is “partially reversed”.

Question: What about the mortality (Human AdV6; 10 mg/kg q.d. p.o.) of the same compound?
Answer: Its mortality is “completely prevented mortality”.

Question: What about the “AdV6 replication in the liver” value (Human AdV6; [2]) of the same compound?
Answer: The value was “inhibits AdV6 replication in the liver”.

Question: What about the “AdV6-induced liver damage” value (Human AdV6; 10 mg/kg q.d., listed as Filociclovir) of the same compound?
Answer: The value was “mitigated the pathology”.

Question: And the “AdV6-induced liver damage” value (Human AdV6; [2])?
Answer: The value was “prevented AdV6-induced liver damage”.

Question: What about the “body weight of uninfected hamsters” value (Human AdV6; 10 mg/kg, uninfected) of the same compound?
Answer: The value was “did not result in body weight loss”.

Question: What about the body weight loss (Human AdV6; 10 mg/kg, listed as Filociclovir) of the same compound?
Answer: Its body weight loss is “completely prevented body weight loss”.

Question: And the body weight loss (Human AdV6; 10 mg/kg, listed as filociclovir)?
Answer: Its body weight loss is “completely reversed”.

Question: What about the “toxic effects in treated hamsters” value (Human AdV6; 1, 3, 10 mg/kg p.o. q.d.) of the same compound?
Answer: Its value is “No toxic effects were observed”.

Question: What about the treatment-related deaths (Human AdV6; AdV6+1 mg/kg group (9 in AdV6+Vehicle)) of the same compound?
Answer: The treatment-related deaths was 5.

Question: What about the “hamsters with mottled liver and enlarged gall bladder” value (Human AdV6; AdV6+1 mg/kg, Day 5 sacrifice (4 in AdV6+Vehicle)) of the same compound?
Answer: The value was 3.
